Data on 2 compounds can be found in ChEMBL document CHEMBL1133491, “Synthesis and binding to plant lectins of sulfur-containing analogues of betaGal1,3 alphaGalNAc (T-antigen)” (Bioorg Med Chem Lett, 2000).

The term IC50 denotes the concentration needed to halve the response being measured. A lower IC50 goes with greater potency.

One experiment has as its system Erythrina corallodendron. Nature of the experiment: Binding affinity to Erythrina corallodendron lectin was evaluated. It counts as functional.
Experiment [1] can be described thus: Binding affinity to Agglutinin was evaluated. On the set-up: species or system Arachis hypogaea.
Experiment [2] in a line: Binding affinity to soybean agglutinin was evaluated. Also noted: species or system Glycine max.

The structures appear in SMILES notation.

For `CC(=O)N[C@@H]1[C@H](Oc2cccc3ccccc23)O[C@@H](CO)[C@@H](O)[C@@H]1O`, the results for the IC50 (in the experiment on Erythrina corallodendron; in experiment [1]; in experiment [2]) were 1510 µM, 1950 µM and 1290 µM, respectively.

For the compound `CC(=O)N[C@@H]1[C@H](Oc2ccccc2)O[C@@H](CO)[C@@H](O)[C@@H]1O`, the concentration for half-maximal inhibition (IC50) in the experiment on Erythrina corallodendron is 1150 µM; in experiment [1] it was 2510 µM; in experiment [2] it was 1720 µM.
